Data published in patent US10611750B2, “Tetrahydroquinoline compositions as bet bromodomain inhibitors” (FORMA Therapeutics, Inc., priority 2013, dated 2020).
Where two headings read alike, the source gives them in different places.

Assays:
[1] = target: T1, BRD4 Bromodomain 1 (BRD4 BD1) (Homo sapiens, UniProt O60885); assay: AlphaScreen binding assay, BRD4 BD1; conditions: His-tagged BRD4 BD1 50 nM, biotinylated H4 (1-21) K5/8/12/16 tetra-acetylated peptide 50 nM, compounds listed under IC50 range headings
T1 construct: 44-168 and BRD4 BD2
How it was run: (§1)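 An AlphaScreen competition format was used with His-BRD4 BD1 or BD2 and biotin-H4 K5/8/12/16-acetyl peptide, each at matched final levels of 50 nM (BD1) or 100 nM (BD2). Incubation in HEPES/NaCl buffer with 0.1% BSA and 0.01% Triton X-100 ran ≥1 h before IC50 determination.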

[2] = target: T2, BRD4 Bromodomain 2 (BRD4 BD2) (Homo sapiens, UniProt O60885); assay: AlphaScreen binding assay, BRD4 BD2; conditions: His-tagged BRD4 BD2 100 nM, biotinylated H4 (1-21) K5/8/12/16 tetra-acetylated peptide 100 nM, compounds listed under IC50 range headings
T2 construct: 333-460 were cloned, expressed, and purified to homogeneity
How it was run: as §1

[3] = test system: acute myelocytic leukemia (AML) cell line MV4-11; assay: Oncology cell growth assay (3-day proliferation, CellTiter-Glo); type: cell-based; conditions: Homo sapiens, MV4-11 cells, 3000 cells/well, compounds listed under IC50 range headings, read-out: MV411 IC50 (gIC50, inhibition of proliferation)
How it was run: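 Luminescence from CellTiter-Glo served as the growth read-out after MV4-11 cells (3000/well) were cultured with compound for 72 hours. Final concentrations spanned 10 to 0.0045 μM in 3-fold steps. gIC50 values were derived by four-parameter logistic fitting relative to DMSO and cell-free controls.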

Row | IC50 [1] [µM] | IC50 [2] [µM] | IC50 ([3]; MV4-11, 72 h) [µM] | SMILES | IC50 ([3]; 72 hours) [µM]
1 | 1 to 10 | 0.05 to 0.5 | 0.5 to 1 | CC=Cn1c(Oc2c(-c3cnn(C4CC4)c3)ccc3c2CC[C@H](C)N3C(C)=O)nc2ccccc21 (single isomer, unassigned) [I-352] | 
2 | 0.1 to 1 | 0.05 to 0.5 | < 0.5 | CC(=O)N1c2ccc(-c3cnn(C4CC4)c3)c(OCC(=O)N3CCC3)c2CC[C@@H]1C [I-7, (S)-2-(1-acetyl-6-(1-cyclopropyl-1H-pyrazol-4-yl)-2-methyl-1,2,3,4-tetrahydroquinolin-5-yloxy)-1-(azetidin-1-yl)ethanone] | 
3 | 0.1 to 1 | 0.05 to 0.5 | < 0.5 | CC(=O)N1c2ccc(-c3cnn(C4CC4)c3)c(OCC(=O)N3CCCCC3)c2CC[C@@H]1C [I-8, (S)-2-(1-acetyl-6-(1-cyclopropyl-1H-pyrazol-4-yl)-2-methyl-1,2,3,4-tetrahydroquinolin-5-yloxy)-1-(piperidin-1-yl)ethanone] | 
4 | 1 to 10 | < 0.05 | > 1 | COC(=O)N1c2ccc(-c3cnn(C4CC4)c3)c(OCCF)c2CC[C@@H]1C [I-11, (S)-methyl 6-(1-cyclopropyl-1H-pyrazol-4-yl)-5-(2-fluoroethoxy)-2-methyl-3,4-dihydroquinoline-1(2H)-carboxylate] | 
5 | 1 to 10 | 0.05 to 0.5 | 0.5 to 1 | COC(=O)N1c2ccc(-c3cnn(C4CC4)c3)c(OCCC(F)(F)F)c2CC[C@@H]1C [I-13, (S)-methyl 6-(1-cyclopropyl-1H-pyrazol-4-yl)-2-methyl-5-(3,3,3-trifluoropropoxy)-3,4-dihydroquinoline-1(2H)-carboxylate] | 
6 | 1 to 10 | 0.05 to 0.5 | > 1 | COC(=O)N1c2ccc(-c3cnn(C4CC4)c3)c(OC(F)(F)C(N)=O)c2CC[C@@H]1C [I-14, (S)-methyl 5-(2-amino-1,1-difluoro-2-oxoethoxy)-6-(1-cyclopropyl-1H-pyrazol-4-yl)-2-methyl-3,4-dihydroquinoline-1(2H)-carboxylate] | 
7 | 0.1 to 1 | 0.05 to 0.5 | 0.5 to 1 | COC(=O)N1c2ccc(-c3cnn(C4CC4)c3)c(OCC(C)(C)CO)c2CC[C@@H]1C [I-17, (S)-methyl 6-(1-cyclopropyl-1H-pyrazol-4-yl)-5-(3-hydroxy-2,2-dimethylpropoxy)-2-methyl-3,4-dihydroquinoline-1(2H)-carboxylate] | 
8 | 1 to 10 | 0.05 to 0.5 | > 1 | COC(=O)N1c2ccc(-c3cnn(C4CC4)c3)c(O[C@H](F)C(N)=O)c2CC[C@@H]1C [I-19, (S)-methyl 5-((R)-2-amino-1-fluoro-2-oxoethoxy)-6-(1-cyclopropyl-1H-pyrazol-4-yl)-2-methyl-3,4-dihydroquinoline-1(2H)-carboxylate] | 
9 | ≥ 10 | ≥ 0.5 | > 1 | COC(=O)N1c2ccc(-c3cnn(C4CC4)c3)c(O[C@@H](F)C(N)=O)c2CC[C@@H]1C [I-20, (S)-methyl 5-((S)-2-amino-1-fluoro-2-oxoethoxy)-6-(1-cyclopropyl-1H-pyrazol-4-yl)-2-methyl-3,4-dihydroquinoline-1(2H)-carboxylate] | 
10 | 0.1 to 1 | < 0.05 | < 0.5 | COC(=O)N1c2ccc(-c3cnn(C4CC4)c3)c(OCC(=O)N(C)C3CC3)c2CC[C@@H]1C [I-22, (S)-methyl 5-(2-(cyclopropyl(methyl)amino)-2-oxoethoxy)-6-(1-cyclopropyl-1H-pyrazol-4-yl)-2-methyl-3,4-dihydroquinoline-1(2H)-carboxylate] | 
11 | 1 to 10 | 0.05 to 0.5 |  | COC(=O)N1c2ccc(-c3cnn(CCS(C)(=O)=O)c3)c(OCCN(C)S(C)(=O)=O)c2CC[C@@H]1C [I-471] | 
12 | 1 to 10 | 0.05 to 0.5 |  | COC(=O)N1c2ccc(-c3cnn(CC(C)(C)O)c3)c(OCCN(C)S(C)(=O)=O)c2CC[C@@H]1C [I-472] | 
13 | 1 to 10 | 0.05 to 0.5 |  | COC(=O)N1c2ccc(-c3cnn(CCO)c3)c(OCCN(C)S(C)(=O)=O)c2CC[C@@H]1C [I-473] | 
14 | 1 to 10 | 0.05 to 0.5 |  | COC(=O)N1c2ccc(-c3cnn(C4CCNCC4)c3)c(OCCN(C)S(C)(=O)=O)c2CC[C@@H]1C [I-474] | 
15 | 1 to 10 | 0.05 to 0.5 |  | COC(=O)N1c2ccc(-c3cnn(CCS(C)(=O)=O)c3)c(OC[C@H]3CCNC3)c2CC[C@@H]1C [I-475] | 
16 | 1 to 10 | 0.05 to 0.5 |  | COC(=O)N1c2ccc(-c3cnn(C4CCNCC4)c3)c(OC[C@H]3CCNC3)c2CC[C@@H]1C [I-477] | 
17 | 1 to 10 | 0.05 to 0.5 |  | CC(=O)N1c2ccc(-c3cnn(C4CC4)c3)c(OCc3ncc(C)o3)c2CC[C@@H]1C [I-478] | 
18 | ≥ 10 | ≥ 0.5 |  | CC(=O)N1c2ccc(-c3cnn(C4CC4)c3)c(OCc3nc4ccccc4o3)c2CC[C@@H]1C [I-481] | 
19 | 1 to 10 | ≥ 0.5 |  | CCCOc1c(-c2ccc(S(C)(=O)=O)cc2)ccc2c1CC[C@H](C)N2C(C)=O [I-482] | 
20 | 1 to 10 | ≥ 0.5 |  | CC(=O)N1c2ccc(-c3ccc(S(C)(=O)=O)cc3)c(OCC(=O)N(C)C)c2CC[C@@H]1C [I-483] | 
21 | 1 to 10 | 0.05 to 0.5 |  | CCCOc1c(-c2ccc(S(=O)(=O)CC)cc2)ccc2c1CC[C@H](C)N2C(C)=O [I-484] | 

Row | IC50 [1] [µM] | IC50 [2] [µM] | IC50 ([3]; MV4-11, 72 h) [µM] | SMILES | IC50 ([3]; 72 hours) [µM]
22 | 1 to 10 | ≥ 0.5 |  | CCS(=O)(=O)c1ccc(-c2ccc3c(c2OCC(=O)N(C)C)CC[C@H](C)N3C(C)=O)cc1 [I-485] | 
23 | 1 to 10 | 0.05 to 0.5 |  | CCCOc1c(-c2cccc(C(=O)N3CCOCC3)c2)ccc2c1CC[C@H](C)N2C(C)=O [I-488] | 
24 | ≥ 10 | ≥ 0.5 |  | CC(=O)N1c2ccc(-c3cccc(C(=O)N4CCOCC4)c3)c(OCC(=O)N(C)C)c2CC[C@@H]1C [I-489] | 
25 | 1 to 10 | 0.05 to 0.5 |  | CCCOc1c(-c2cccc(NS(C)(=O)=O)c2)ccc2c1CC[C@H](C)N2C(C)=O [I-490] | 
26 | 1 to 10 | 0.05 to 0.5 |  | CCCOc1c(-c2cccc(S(C)(=O)=O)c2)ccc2c1CC[C@H](C)N2C(C)=O [I-492] | 
27 | 1 to 10 | ≥ 0.5 |  | CC(=O)N1c2ccc(-c3cccc(S(C)(=O)=O)c3)c(OCC(=O)N(C)C)c2CC[C@@H]1C [I-493] | 
28 | 1 to 10 | 0.05 to 0.5 |  | CCCOc1c(-c2ccc(NS(C)(=O)=O)cc2)ccc2c1CC[C@H](C)N2C(C)=O [I-494] | 
29 | 1 to 10 | ≥ 0.5 |  | CC(=O)N1c2ccc(-c3ccc(NS(C)(=O)=O)cc3)c(OCC(=O)N(C)C)c2CC[C@@H]1C [I-495] | 
30 | 1 to 10 | 0.05 to 0.5 |  | CCCOc1c(-c2ccc(C(=O)N3CCOCC3)cc2)ccc2c1CC[C@H](C)N2C(C)=O [I-496] | 
31 | 1 to 10 | 0.05 to 0.5 |  | CC(=O)N1c2ccc(-c3ccc(C(=O)N4CCOCC4)cc3)c(OCC(=O)N(C)C)c2CC[C@@H]1C [I-497] | 
32 | 1 to 10 | 0.05 to 0.5 |  | CCCOc1c(-c2ccc(N3CCCS3(=O)=O)cc2)ccc2c1CC[C@H](C)N2C(C)=O [I-498] | 
33 | 1 to 10 | 0.05 to 0.5 |  | CC(=O)N1c2ccc(-c3ccc(N4CCCS4(=O)=O)cc3)c(OCC(=O)N(C)C)c2CC[C@@H]1C [I-499] | 
34 | 1 to 10 | 0.05 to 0.5 |  | CCCOc1c(-c2ccc3c(c2)CCN3S(C)(=O)=O)ccc2c1CC[C@H](C)N2C(C)=O [I-500] | 
35 | 1 to 10 | 0.05 to 0.5 |  | CCCOc1c(-c2ccc(N(C)S(C)(=O)=O)cc2)ccc2c1CC[C@H](C)N2C(C)=O [I-502] | 
36 | 1 to 10 | 0.05 to 0.5 |  | CC(=O)N1c2ccc(-c3ccc(N(C)S(C)(=O)=O)cc3)c(OCC(=O)N(C)C)c2CC[C@@H]1C [I-503] | 
37 | 1 to 10 | 0.05 to 0.5 |  | CC(=O)N1c2ccc(-c3cnn(CCO)c3)c(Oc3nc(C)cc(C)n3)c2CC[C@@H]1C [I-544] | 
38 | 1 to 10 | 0.05 to 0.5 |  | CC(=O)N1c2ccc(-c3cnn(C4COC4)c3)c(OC[C@H]3CCNC3)c2CC[C@@H]1C [I-601] | 
39 | 1 to 10 | ≥ 0.5 |  | CC(=O)N1c2ccc(-c3cnn(CC(C)(C)O)c3)c(OC[C@H]3CCNC3)c2CC[C@@H]1C [I-604] | 
40 | ≥ 10 | ≥ 0.5 |  | CCCOc1cccc2c1CC[C@H](C)N2C(C)=O [I-605] | 
41 | ≥ 10 | ≥ 0.5 |  | CC(=O)N1c2cccc(OCC(=O)N(C)C)c2CC[C@@H]1C [I-606] | 
42 | ≥ 10 | ≥ 0.5 |  | CC(=O)N1c2cccc(OCC3CCCC3)c2CC[C@@H]1C [I-607] | 

Row | SMILES | IC50 [1] [µM] | IC50 [2] [µM] | IC50 ([3]; MV4-11, 72 h) [µM] | IC50 ([3]; 72 hours) [µM]
43 | CC(=O)N1c2ccc(-c3cnn(C4CC4)c3)c(O[C@H](F)C(N)=O)c2CC[C@@H]1C (single isomer, unassigned) [I-63] | 1 to 10 | 0.05 to 0.5 |  | > 1
44 | CC(=O)N1c2ccc(-c3cnn(C4CC4)c3)c(OC(F)C(N)=O)c2CC[C@@H]1C (single isomer, unassigned) [I-64] | ≥ 10 | ≥ 0.5 |  | > 1
45 | CCCOc1c(-c2cnn(CCO)c2)ccc2c1CC[C@H](C)N2C(C)=O [I-1, (S)-1-(6-(1-(2-hydroxyethyl)-1H-pyrazol-4-yl)-2-methyl-5-propoxy-3,4-dihydroquinolin-1 (2H)-yl)ethanone] | 0.1 to 1 | 0.05 to 0.5 |  | < 0.5
